Source: ChEMBL document CHEMBL5523755, “Design, Synthesis, and Biological Evaluation of 1,4-Dihydropyridine-Indole as a Potential Antidiabetic Agent via GLUT4 Translocation Stimulation” (J Med Chem, 2024)
Active and inactive are the calls of the source. The rule behind the calls is not given here.

How the values were obtained:
[1] = biological target: T1, Solute carrier family 2, facilitated glucose transporter member 4 (Rattus norvegicus) (UniProt P19357); assay: Induction of GLUT4 translocation in rat L6-GLUT4myc skeletal muscle cells assessed as translocation to cell surface by measuring fold stimulation at 10 uM measured after 1 hr incubation by antibody-coupled colorimetric assay relative to control; format: cell-based; conditions: filed as modulator
T1 sequence (whole entry): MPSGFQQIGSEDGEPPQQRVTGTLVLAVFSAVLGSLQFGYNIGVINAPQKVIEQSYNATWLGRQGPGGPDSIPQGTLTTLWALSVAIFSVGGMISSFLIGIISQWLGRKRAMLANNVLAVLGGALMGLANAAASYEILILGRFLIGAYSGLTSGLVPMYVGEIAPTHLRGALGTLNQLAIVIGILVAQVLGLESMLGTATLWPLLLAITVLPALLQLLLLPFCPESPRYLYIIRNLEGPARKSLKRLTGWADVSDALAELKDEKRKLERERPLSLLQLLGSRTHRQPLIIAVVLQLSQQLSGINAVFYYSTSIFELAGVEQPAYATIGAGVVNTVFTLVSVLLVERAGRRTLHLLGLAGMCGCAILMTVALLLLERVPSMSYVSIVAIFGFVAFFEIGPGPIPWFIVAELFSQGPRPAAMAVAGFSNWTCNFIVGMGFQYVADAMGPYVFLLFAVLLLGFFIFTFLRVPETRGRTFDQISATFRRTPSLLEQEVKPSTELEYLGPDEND

[2] = biological target: T1, Solute carrier family 2, facilitated glucose transporter member 4 (Rattus norvegicus); assay: Induction of GLUT4 translocation in rat L6-GLUT4myc skeletal muscle cells assessed as translocation to cell surface by measuring fold stimulation at 500 uM measured after 1 hr incubation by antibody-coupled colorimetric assay relative to control; format: cell-based; conditions: filed as modulator
[3] = biological target: T1, Solute carrier family 2, facilitated glucose transporter member 4 (Rattus norvegicus); assay: Induction of GLUT4 translocation in rat L6-GLUT4myc skeletal muscle cells assessed as translocation to cell surface by measuring fold stimulation measured after 16 hrs incubation by antibody-coupled colorimetric assay relative to control; format: cell-based; conditions: filed as modulator, dose 5-25 µM
[4] = biological target: T2, Beta-galactosidase (Homo sapiens) (UniProt P16278); assay: Inhibition of beta-galactosidase (unknown origin) at 100 uM relative to control
T2 sequence (whole entry): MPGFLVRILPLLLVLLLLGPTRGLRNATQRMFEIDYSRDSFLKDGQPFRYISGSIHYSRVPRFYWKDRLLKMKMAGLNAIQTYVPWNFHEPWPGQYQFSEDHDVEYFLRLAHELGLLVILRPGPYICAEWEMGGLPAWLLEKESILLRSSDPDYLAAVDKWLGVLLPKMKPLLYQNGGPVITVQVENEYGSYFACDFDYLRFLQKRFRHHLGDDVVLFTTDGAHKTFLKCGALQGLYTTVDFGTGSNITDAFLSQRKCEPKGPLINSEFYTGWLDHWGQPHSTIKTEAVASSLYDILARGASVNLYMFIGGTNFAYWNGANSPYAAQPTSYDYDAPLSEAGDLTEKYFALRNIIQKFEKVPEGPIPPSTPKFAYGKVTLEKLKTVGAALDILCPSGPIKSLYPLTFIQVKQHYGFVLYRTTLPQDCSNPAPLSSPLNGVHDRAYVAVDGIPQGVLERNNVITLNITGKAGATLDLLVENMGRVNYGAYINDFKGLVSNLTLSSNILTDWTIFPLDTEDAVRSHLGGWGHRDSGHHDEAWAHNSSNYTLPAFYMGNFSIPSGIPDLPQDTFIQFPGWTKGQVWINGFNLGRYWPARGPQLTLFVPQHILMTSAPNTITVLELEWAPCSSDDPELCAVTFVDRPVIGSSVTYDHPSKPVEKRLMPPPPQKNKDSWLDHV

[5] = biological target: T1, Solute carrier family 2, facilitated glucose transporter member 4 (Rattus norvegicus); assay: Induction of GLUT4 translocation in rat L6-GLUT4myc skeletal muscle cells assessed as translocation to cell surface by measuring fold stimulation at 10 uM measured after 16 hrs incubation in presence of wortmannin PI3 Kinase inhibitor by antibody-coupled colorimetric assay; format: cell-based
Rattus norvegicus = assay: Antihyperglycemic activity in STZ-induced Sprague-Dawley rat diabetic model assessed as decrease in blood glucose at 100 mg/kg, po measured upto 300 mins; format: functional, organism-based
[6] = MRT in Sprague-Dawley rat at 100 mg/kg, po measured after 48 hrs by LC-MS/MS analysis; format: ADME, organism-based; conditions: in vivo
[7] = Clearance in Sprague-Dawley rat at 100 mg/kg, po measured after 48 hrs by LC-MS/MS analysis; format: ADME, organism-based; conditions: in vivo
[8] = Apparent volume of distribution in Sprague-Dawley rat at 100 mg/kg, po measured after 48 hrs by LC-MS/MS analysis; format: ADME, organism-based; conditions: in vivo
[9] = biological target: RAC-alpha serine/threonine-protein kinase (Rattus norvegicus) (UniProt P47196); assay: Induction of AKT phosphorylation at Ser 473 in rat L6-GLUT4myc skeletal muscle cells at 10 uM measured after 16 hrs incubation by immunoblotting analysis; format: cell-based; conditions: filed as modulator
[10] = Cmax in Sprague-Dawley rat at 100 mg/kg, po measured after 48 hrs by LC-MS/MS analysis; format: ADME, organism-based; conditions: in vivo
L6-GLUT4myc = assay: Induction of GPR40 expression in rat L6-GLUT4myc skeletal muscle cells assessed as increase in mRNA level at 10 uM measured after overnight incubation by RT-PCR analysis; format: functional, cell-based; conditions: filed as activator
[11] = biological target: T1, Solute carrier family 2, facilitated glucose transporter member 4 (Rattus norvegicus); assay: Induction of insulin-induced GLUT4 translocation in rat L6-GLUT4myc skeletal muscle cells assessed as translocation to cell surface at 10 uM measured after 16 hrs incubation (final 3 hrs under serum starved medium) followed by stimulated with 100 nM insulin for 20 mins by antibody-coupled colorimetric assay; format: cell-based
[12] = AUC in Sprague-Dawley rat at 100 mg/kg, po measured after 48 hrs by LC-MS/MS analysis; format: ADME, organism-based; conditions: in vivo
[13] = Tmax in Sprague-Dawley rat at 100 mg/kg, po measured after 48 hrs by LC-MS/MS analysis; format: ADME, organism-based; conditions: in vivo
[14] = Elimination half life in Sprague-Dawley rat at 100 mg/kg, po measured after 48 hrs by LC-MS/MS analysis; format: ADME, organism-based; conditions: in vivo, read-out: beta t1/2 (converted)
[15] = Stability of the compound in simulated intestinal fluid (SIF) assessed as compound remaining measured upto 120 mins relative to control; format: ADME; conditions: read-out: Stability
[16] = Stability of the compound in rat plasma assessed as compound remaining measured upto 120 mins relative to control; format: ADME, cell-free; conditions: read-out: Stability
[17] = biological target: T1, Solute carrier family 2, facilitated glucose transporter member 4 (Rattus norvegicus); assay: Induction of GLUT4 translocation in rat L6-GLUT4myc skeletal muscle cells assessed as translocation to cell surface by measuring fold stimulation at 10 uM measured after 16 hrs incubation in presence of compound c AMPK inhibitor by antibody-coupled colorimetric assay; format: cell-based; conditions: filed as modulator
[18] = Stability of the compound in simulated physiological fluid (SPF) assessed as compound remaining measured upto 120 mins relative to control; format: ADME; conditions: read-out: Stability
[19] = Stability of the compound in simulated gastric fluid (SGF) assessed as compound remaining measured upto 120 mins relative to control; format: ADME; conditions: read-out: Stability

Chain of RAC-alpha serine/threonine-protein kinase (Rattus norvegicus) (P47196 whole entry): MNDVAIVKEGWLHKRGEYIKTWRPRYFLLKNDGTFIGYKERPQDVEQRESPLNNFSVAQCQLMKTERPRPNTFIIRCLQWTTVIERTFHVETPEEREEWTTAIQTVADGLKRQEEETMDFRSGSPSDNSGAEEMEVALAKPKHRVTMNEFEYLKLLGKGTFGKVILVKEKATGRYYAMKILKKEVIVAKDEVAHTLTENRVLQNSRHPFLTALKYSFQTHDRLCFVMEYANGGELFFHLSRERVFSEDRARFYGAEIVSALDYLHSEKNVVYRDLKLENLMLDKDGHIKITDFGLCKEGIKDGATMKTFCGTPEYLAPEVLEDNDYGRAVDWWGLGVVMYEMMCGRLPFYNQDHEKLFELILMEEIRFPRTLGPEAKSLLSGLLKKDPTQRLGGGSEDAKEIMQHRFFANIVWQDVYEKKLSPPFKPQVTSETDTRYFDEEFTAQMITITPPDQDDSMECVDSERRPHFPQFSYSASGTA

Compound	fold change (FC) [1]	further results
COc1ccc(C2C(C(=O)NCCc3c[nH]c4ccccc34)=C(C)NC3=C2C(=O)CC(C)(C)C3)cc1OC (stereo not drawn)	1.3	–
CC1=C(C(=O)NCCc2c(C)[nH]c3ccccc23)C(c2ccc(Cl)c(Cl)c2)C2=C(CC(C)(C)CC2=O)N1 (stereo not drawn)	1.42	–
COc1cc(C2C(C(=O)NCCc3c[nH]c4ccccc34)=C(C)NC3=C2C(=O)CC(C)(C)C3)cc(OC)c1OC (stereo not drawn)	1.21	–
CC1=C(C(=O)Nc2ccccc2)C(c2ccc(Cl)c(Cl)c2)C2=C(CC(C)(C)CC2=O)N1 (stereo not drawn)	1.1	–
CCNC(=O)C1=C(C)NC2=C(C(=O)CC(C)(C)C2)C1c1ccc(Cl)c(Cl)c1 (stereo not drawn)	1.16	–
CC1=C(C(=O)NCCc2c[nH]c3ccccc23)C(c2ccc(C#N)cc2)C2=C(CC(C)(C)CC2=O)N1 (stereo not drawn)	0.96	–
CC1=C(C(=O)NCCc2c[nH]c3ccccc23)C(c2cccs2)C2=C(CC(C)(C)CC2=O)N1 (stereo not drawn)	1.09	–
CN(C)C(=N)NC(=N)N	–	fold change (FC) [2]: 1.86
CC1=C(C(=O)NCCc2c[nH]c3ccccc23)C(c2ccc(Cl)cc2)C2=C(CC(C)(C)CC2=O)N1 (stereo not drawn)	1.49	–
NCCc1c[nH]c2ccccc12	1.08	–
CC1=C(C(=O)NCCc2c[nH]c3ccccc23)C(c2ccc([N+](=O)[O-])cc2)C2=C(CC(C)(C)CC2=O)N1 (stereo not drawn)	1.72	–
CC1=C(C(=O)NCCc2c[nH]c3ccccc23)C(c2c(Cl)cccc2Cl)C2=C(CC(C)(C)CC2=O)N1 (stereo not drawn)	0.82	–
CC1=C(C(=O)NCCc2c[nH]c3ccccc23)C(c2ccc(C(F)(F)F)cc2)C2=C(CC(C)(C)CC2=O)N1 (stereo not drawn)	1.58	–
CC1=C(C(=O)NCCc2c[nH]c3ccccc23)C(c2cccc([N+](=O)[O-])c2)C2=C(CC(C)(C)CC2=O)N1 (stereo not drawn)	1.86	Activity [3]: Dose-Dependent Effect
CSc1ccc(C2C(C(=O)NCCc3c[nH]c4ccccc34)=C(C)NC3=C2C(=O)CC(C)(C)C3)cc1 (stereo not drawn)	1.33	–
CC1=C(C(=O)NCCc2c[nH]c3ccccc23)C(c2ccco2)C2=C(CCCC2=O)N1 (stereo not drawn)	1.62	–
CC1=C(C(=O)NCCc2c[nH]c3ccccc23)C(c2ccsc2)C2=C(CC(C)(C)CC2=O)N1 (stereo not drawn)	1.87	Activity [3]: Dose-Dependent Effect
CC1=C(C(=O)NCCc2c[nH]c3ccccc23)C(c2ccc(F)cc2)C2=C(CCCC2=O)N1 (stereo not drawn)	1.54	–

Compound	fold change (FC) [1]	further results
Cc1nc2c(c(-c3ccc(Cl)c(Cl)c3)c1C(=O)NCCc1c[nH]c3ccccc13)C(=O)CC(C)(C)C2	1.42	–
COc1ccc2[nH]cc(CCNC(=O)C3=C(C)NC4=C(C(=O)CC(C)(C)C4)C3c3ccc(Cl)c(Cl)c3)c2c1 (stereo not drawn)	1.37	–
CC1=C(C(=O)NCCc2c[nH]c3ccccc23)C(c2ccc(F)cc2)C2=C(CC(C)(C)CC2=O)N1 (stereo not drawn)	1	–
O=C(NC(Cc1c[nH]c2ccccc12)C(=O)O)c1cccc(Cl)c1 (stereo not drawn)	–	inhibition [4]: 49%
CC1=C(C(=O)NCCc2c[nH]c3ccccc23)C(c2ccc(Cl)c(Cl)c2)C2=C(CC(C)(C)CC2=O)N1 (stereo not drawn)	2.96	Activity [5]: inactive; Activity (Rattus norvegicus): Active; MRT [6]: 20.8 h; CL/F [7]: 4230 mL/min/kg; Vd(app) [8]: 5281.28 L/kg; Activity [9]: Active; Cmax [10]: 51.7 ng/mL; Activity (L6-GLUT4myc): Active; Activity [11]: inactive; AUC at 48 h [12]: 367 ng·h/mL; Tmax [13]: 25.2 min; half-life [14]: 857 min; remaining at 2 h [15]: 91.1%; remaining at 2 h [16]: 90.2%; Activity [17]: Active; remaining at 2 h [18]: 96.2%; Activity [3]: Dose-Dependent Effect; remaining at 2 h [19]: 90.8%
CC(=O)CC(=O)NCCc1c[nH]c2ccccc12	1.18	–
CC1=C(C(=O)NCCc2c[nH]c3ccccc23)C(c2ccc(OC(F)(F)F)cc2)C2=C(CC(C)(C)CC2=O)N1 (stereo not drawn)	2.11	Activity [3]: Dose-Dependent Effect
COc1cc(C2C(C(=O)NCCc3c[nH]c4ccccc34)=C(C)NC3=C2C(=O)CCC3)cc(OC)c1OC (stereo not drawn)	1.79	Activity [3]: Dose-Dependent Effect
CCOC(=O)C1=C(C)NC2=C(C(=O)CC(C)(C)C2)C1c1ccc(Cl)c(Cl)c1 (stereo not drawn)	1.92	–
CC1=C(C(=O)NCCc2c[nH]c3ccccc23)C(c2scnc2C)C2=C(CC(C)(C)CC2=O)N1 (stereo not drawn)	1	–
CC1=C(C(=O)NCCc2c[nH]c3ccccc23)C(c2cccc([N+](=O)[O-])c2)C2=C(CCCC2=O)N1 (stereo not drawn)	1.71	–
CC1=C(C(=O)NCCc2c[nH]c3ccccc23)C(c2ccco2)C2=C(CC(C)(C)CC2=O)N1 (stereo not drawn)	2.01	Activity [3]: Dose-Dependent Effect
COc1ccc(C2C(C(=O)NCCc3c[nH]c4ccccc34)=C(C)NC3=C2C(=O)CCC3)cc1OC (stereo not drawn)	1.48	–
COc1ccc(C2C(C(=O)NCCc3c[nH]c4ccccc34)=C(C)NC3=C2C(=O)CC(C)(C)C3)cc1 (stereo not drawn)	1.39	–
CC1=C(C(=O)NCCc2c[nH]c3ccccc23)C(c2cccc(Cl)c2Cl)C2=C(CC(C)(C)CC2=O)N1 (stereo not drawn)	1.52	–
CC1=C(C(=O)NCCc2c[nH]c3ccccc23)C(c2ccc(O)c(O)c2)C2=C(CC(C)(C)CC2=O)N1 (stereo not drawn)	0.99	–
CC1=C(C(=O)NCCc2c[nH]c3ccccc23)C(c2ccsc2)C2=C(CCCC2=O)N1 (stereo not drawn)	1.64	–
